Results from PMC7391767, “Molecular mechanisms underlying menthol binding and activation of TRPM8 ion channel” (Nature Communications, 2020).
Several values for one entry are separate records, joined by “and”; a condition that tells them apart may be missing. Identical values can stand only once.

What was measured:
Type in all cases: cell-based
Design in all cases: Shifts in ANAP emission, Ave: unit: nm
ANAP-incorporated TRPM8 [1] = biological target: T1, ANAP-incorporated TRPM8 (Mus musculus, UniProt Q8R4D5, Y808X); conditions: ANAP incorporation site Y808; average shift, menthol activated vs resting state
T1 construct: expressed in transfected cells; host or cells: HEK293 cells, co-transfected with the pANAP vector
Protocol: (§1) As fluorescence emission peak of ANAP shifts to a longer wavelength in more hydrophilic environment, we measured the shift in ANAP emission peak to report conformational changes. Fluorescence properties of ANAP may also be affected by other factors such as temperature and pH[31], so we performed our ANAP experiments always at room temperature (22 ± 1°C). To control for changes in solution pH, we added 3 mM HEPES in ANAP imaging solution to buffer the pH at 7.2. We genetically integrated ANAP into a specific site on TRPM8 with special tRNA and synthetase encoded by pANAP vector (Fig. 5d).
(§2) L-ANAP methyl ester was purchased from AsisChem. pANAP vector was purchased from Addgene. ANAP was incorporated into TRPM8 by introducing a TAG amber stop codon mutation as previously reported. Briefly, after co-transfection of both TRPM8 and pANAP vectors, ANAP was directly added to the culture medium to the final concentration of 20 µM. After 1–2 days, ANAP-containing culture medium was completely changed. Cells were further cultured in ANAP-free medium overnight before experiments.
(§3) ANAP fluorescence was excited by the Ar laser with a 375/28 excitation filter, a T400lp dichroic mirror, and a 435LP emission filter on an inverted fluorescence microscope (Nikon TE2000-U) using a ×40 oil-immersion objective (NA 1.3). Emission spectrum of ANAP was imaged with an Acton SpectraPro 2150i spectrograph in conjunction with an optiMOS CCD camera (Qimaging, USA). We determined the ANAP emission peak value by fitting the emission spectrum with a skewed Gauss distribution in Igor Pro version 6.1 (WaveMatrix), and then the difference in emission peak values measured in the absence and presence of menthol was reported as the shift of ANAP emission.

ANAP-incorporated TRPM8 [2] = biological target: T2, ANAP-incorporated TRPM8 (Mus musculus, UniProt Q8R4D5, P952X); conditions: ANAP incorporation site P952; average shift, menthol activated vs resting state
T2 construct: expressed in transfected cells; host or cells: HEK293 cells, co-transfected with the pANAP vector
Protocol: as §1, §2, §3

ANAP-incorporated TRPM8 [3] = biological target: T3, ANAP-incorporated TRPM8 (Mus musculus, UniProt Q8R4D5, I865X); conditions: ANAP incorporation site I865
T3 construct: expressed in transfected cells; host or cells: HEK293 cells, co-transfected with the pANAP vector
Protocol: as §1, §2, §3

ANAP-incorporated TRPM8 [4] = biological target: T4, ANAP-incorporated TRPM8 (Mus musculus, UniProt Q8R4D5, T922X)
T4 construct: expressed in transfected cells; host or cells: HEK293 cells, co-transfected with the pANAP vector
Protocol: as §1, §2, §3

ANAP-incorporated TRPM8 [5] = biological target: T5, ANAP-incorporated TRPM8 (Mus musculus, UniProt Q8R4D5, S921X); conditions: ANAP incorporation site S921
T5 construct: expressed in transfected cells; host or cells: HEK293 cells, co-transfected with the pANAP vector
Protocol: as §1, §2, §3

ANAP-incorporated TRPM8 [6] = biological target: T6, ANAP-incorporated TRPM8 (Mus musculus, UniProt Q8R4D5, W898X); conditions: ANAP incorporation site W898
T6 construct: expressed in transfected cells; host or cells: HEK293 cells, co-transfected with the pANAP vector
Protocol: as §1, §2, §3

ANAP-incorporated TRPM8 [7] = biological target: T7, ANAP-incorporated TRPM8 (Mus musculus, UniProt Q8R4D5, V876X); conditions: ANAP incorporation site V876
T7 construct: expressed in transfected cells; host or cells: HEK293 cells, co-transfected with the pANAP vector
Protocol: as §1, §2, §3

ANAP-incorporated TRPM8 [8] = biological target: T8, ANAP-incorporated TRPM8 (Mus musculus, UniProt Q8R4D5, S824X)
T8 construct: expressed in transfected cells; host or cells: HEK293 cells, co-transfected with the pANAP vector
Protocol: as §1, §2, §3

ANAP-incorporated TRPM8 [9] = biological target: T9, ANAP-incorporated TRPM8 (Mus musculus, UniProt Q8R4D5, Y787X); conditions: ANAP incorporation site Y787, menthol activated vs resting state
T9 construct: expressed in transfected cells; host or cells: HEK293 cells, co-transfected with the pANAP vector
Protocol: as §1, §2, §3

ANAP-incorporated TRPM8 [10] = biological target: T10, ANAP-incorporated TRPM8 (Mus musculus, UniProt Q8R4D5, S820X); conditions: ANAP incorporation site S820; average shift, menthol activated vs resting state
T10 construct: expressed in transfected cells; host or cells: HEK293 cells, co-transfected with the pANAP vector
Protocol: as §1, §2, §3

ANAP-incorporated TRPM8 [11] = biological target: T11, ANAP-incorporated TRPM8 (Mus musculus, UniProt Q8R4D5, S823X); conditions: ANAP incorporation site S823
T11 construct: expressed in transfected cells; host or cells: HEK293 cells, co-transfected with the pANAP vector
Protocol: as §1, §2, §3

ANAP-incorporated TRPM8 [12] = biological target: T12, ANAP-incorporated TRPM8 (Mus musculus, UniProt Q8R4D5, Y924X); conditions: ANAP incorporation site Y924
T12 construct: expressed in transfected cells; host or cells: HEK293 cells, co-transfected with the pANAP vector
Protocol: as §1, §2, §3

ANAP-incorporated TRPM8 [13] = biological target: T13, ANAP-incorporated TRPM8 (Mus musculus, UniProt Q8R4D5, Y999X); conditions: ANAP incorporation site Y999; average shift, menthol activated vs resting state
T13 construct: expressed in transfected cells; host or cells: HEK293 cells, co-transfected with the pANAP vector
Protocol: as §1, §2, §3

[14] = average shift, menthol activated vs resting state

Work on `CC(C)[C@@H]1CC[C@@H](C)C[C@H]1O` [menthol, (−)-menthol] yielded a Shifts_ave (ANAP-incorporated TRPM8 [1]) of 1.79 nm, a Shifts_ave (ANAP-incorporated TRPM8 [2]) of 1.08 nm and a Shifts_ave (ANAP-incorporated TRPM8 [3]; [14]) of 0.00167 nm. The “Emission Peak at menthol activated state” value (ANAP-incorporated TRPM8 [3]; single measurement) was 471.49 nm and 482.04 nm and 478.09 nm and 488.42 nm and 478.8 nm and 481.12 nm, the “Shifts in ANAP emission, Ave” value (ANAP-incorporated TRPM8 [4]; ANAP at T922) was -2.55 and the Shifts_ave (ANAP-incorporated TRPM8 [4]; ANAP incorporation site T922, average shift, menthol activated vs resting state) was -2.55 nm. For the same molecule, the “Emission Peak at menthol activated state” value (ANAP-incorporated TRPM8 [4]; ANAP incorporation site T922, single measurement) was 473.38 nm and 482.56 nm and 468.55 nm and 478.75 nm and 477.12 nm, the Shifts_ave (ANAP-incorporated TRPM8 [5]; [14]) was 1.07 nm and the Shifts in emission (ANAP-incorporated TRPM8 [5]; menthol activated vs resting state, single measurement) was 1.34 nm and 1.13 nm and 1.09 nm and 0.99 nm and 0.8 nm. The “Emission Peak at menthol activated state” value (ANAP-incorporated TRPM8 [5]; single measurement) was 493.48 nm and 489.7 nm and 490.23 nm and 494.29 nm and 493.18 nm, the Shifts_ave (ANAP-incorporated TRPM8 [6]; [14]) was -1.33 nm and the “Emission Peak at menthol activated state” value (ANAP-incorporated TRPM8 [6]; single measurement) was 483.12 nm and 481.69 nm and 486.71 nm and 481.28 nm. The Shifts_ave (ANAP-incorporated TRPM8 [7]; [14]) was 0.71 nm, the “Emission Peak at menthol activated state” value (ANAP-incorporated TRPM8 [7]; single measurement) was 481.62 nm and 479.21 nm and 478.64 nm and 484.51 nm and 491.43 nm and the “Shifts in ANAP emission, Ave” value (ANAP-incorporated TRPM8 [8]; ANAP at S824) was 2.89. For the same molecule, the Shifts_ave (ANAP-incorporated TRPM8 [8]; ANAP incorporation site S824, average shift, menthol activated vs resting state) was 2.90 nm, the “Emission Peak at menthol activated state” value (ANAP-incorporated TRPM8 [8]; ANAP incorporation site S824, single measurement) was 488.12 nm and 482.56 nm and 490.74 nm and the Shifts_ave (ANAP-incorporated TRPM8 [9]; average shift) was 1.928 nm. The Shifts in emission (ANAP-incorporated TRPM8 [9]; single measurement) was 1.56 nm and 1.57 nm and 2.4 nm and 1.35 nm and 2.69 nm and 2 nm, the Shifts_ave (ANAP-incorporated TRPM8 [10]) was 0.28 nm and the Shifts_ave (ANAP-incorporated TRPM8 [11]; [14]) was 0.97 nm. For the same molecule, the “Emission Peak at menthol activated state” value (ANAP-incorporated TRPM8 [11]; single measurement) was 488.83 nm and 484.77 nm and 484.58 nm and 485.28 nm, the Shifts_ave (ANAP-incorporated TRPM8 [12]; [14]) was -0.72 nm and the “Emission Peak at menthol activated state” value (ANAP-incorporated TRPM8 [12]; single measurement) was 483.26 nm and 481.78 nm and 474.51 nm and 486.54 nm. It also gave a Shifts_ave (ANAP-incorporated TRPM8 [13]) of 0.79 nm.
